Laboratory results taken from PMC6222791, “(−)-Asarinin from the Roots of Asarum sieboldii Induces Apoptotic Cell Death via Caspase Activation in Human Ovarian Cancer Cells” (Molecules : A Journal of Synthetic Chemistry and Natural …, 2018).
Read-outs that look alike come from different tables or passages of the source.

Experiments:
[1] = tested on: A2780 cells; test: MTT assay with caspase inhibitors on (−)-asarinin (1)-induced cell death, A2780; format: cell-based, human; details: A2780, inhibitor 50 μM pretreated 30 min, then (−)-asarinin (1) 40 μM 48 h
[2] = tested on: SKOV3 cells; test: MTT assay with caspase inhibitors on (−)-asarinin (1)-induced cell death, SKOV3; format: cell-based, human; details: SKOV3, inhibitor 50 μM pretreated 30 min, then (−)-asarinin (1) 60 μM 48 h
[3] = tested on: A2780 cells; test: MTT cytotoxicity assay, A2780; format: cell-based; details: Homo sapiens, read-out: IC50 (cytotoxicity)
[4] = tested on: SKOV3 cells; test: MTT cytotoxicity assay, SKOV3; format: cell-based; details: Homo sapiens, read-out: IC50 (cytotoxicity)
[5] = MTT cytotoxicity assay, IOSE80PC; details: human
Experimental: (§1) Human ovarian cancer cell lines (A2780 and SKOV3 cells) were obtained from the American Type Culture Collection (ATCC), and immortalized ovarian surface epithelial cell lines (IOSE80PC) were provided by Dr. N. Auersperg (University of British Columbia, Vancouver, British Columbia, Canada) and Dr. A. Godwin (Fox Chase Cancer Center, Philadelphia, PA, USA).
(§2) A MTT assay was performed to evaluate the cell viability. The MTT was obtained from Molecular Probes Inc. (Eugene, OR, USA). Briefly, the cells (1.0 × 10^5/well) were seeded in a 96-well plate and incubated for 24 h. […] MTT solution was added into each well (final concentration; 0.5 mg/mL) and the plates were incubated for an additional 4 h. The medium was removed and 50 μL of dimethyl sulfoxide (DMSO) was added. The optical density was measured at 540 nm using a microplate spectrophotometer (SpectraMax; Molecular Devices, Sunnyvale, CA, USA). To investigate the involvement of caspases in asarinin (1)-induced cell death, a MTT assay was also performed using caspase inhibitors. The cells were pretreated with caspase inhibitors (50 μM) for 30 min, and treated with (−)-asarinin (1) (A2780, 40 μM; and SKOV3, 60 μM) for 48 h. Caspase-3 inhibitor z-DEVD-fmk, caspase-8 inhibitor z-IETD-fmk, and caspase-9 inhibitor z-LEHD-fmk were purchased from Calbiochem (Bad Soden, Germany).

[6] = tested on: IOSE80PC cells; test: in vitro
Experimental: as §1, §2

[7] = tested on: A2780 cells; test: Cell cycle analysis (PI staining, flow cytometry), A2780; format: cell-based, human; details: A2780, 48 h
Experimental: (§3) The cells were treated with (−)-asarinin (1) and incubated for 48 h. At the time of collection, the cells were harvested and washed twice with ice-cold phosphate buffered saline (PBS). The cells were fixed and permeabilized with 70% ice-cold ethanol at −20 °C for 4 h. The cells were washed once with PBS and resuspended in a staining solution containing propidium iodide (50 µg/mL) and RNase A (5 mg/mL). The cell suspensions were incubated for 30 min at room temperature in a dark place. After 30 min the suspensions were analyzed by fluorescence-activated cell sorting (FACS) cater-plus flow cytometry (guava easy cyte^TM, Merk Millipore, Darmstadt, Germany) using 5000 cells per group.

[8] = tested on: SKOV3 cells; test: Cell cycle analysis (PI staining, flow cytometry), SKOV3; format: cell-based, human; details: SKOV3, 48 h
Experimental: as §3

[9] = tested on: A2780 cells; test: PI/Annexin V-FITC double staining, A2780; format: cell-based, human; details: A2780, 48 h, increased by up to
Experimental: (§4) Annexin V- FITC was obtained from BD Biosciences (San Jose, CA, USA). The cells were treated with (−)-asarinin (1) and incubated for 48 h. The cells were rinsed twice with ice-cold PBS and suspended with 100 μL of binding buffer (10 mM HEPES/NaOH, 140 mM Nacl, 2.5 mM CaCl2, PH 7.4). A total of 5 μL of FITC-conjugated annexin V and 5 μL of PI ([…]) were added into the cell suspension, and the mixture was incubated in a dark place at room temperature for 15 min. The cells were analyzed using FACS cater-plus flow cytometry (guava easy cyte^TM); at least 10,000 cells per each group were counted.

[10] = tested on: SKOV3 cells; test: PI/Annexin V-FITC double staining, SKOV3; format: cell-based, human; details: SKOV3, 48 h, increased by up to
Experimental: as §4

[11] = tested on: caspase-3; test: Western blot caspase activation, A2780; format: cell-based, human; details: A2780, 48 h, procaspase level by Western blot
Experimental: (§5) The cells were treated with (−)-asarinin (1) and incubated for 48 h. The cells were rinsed twice with ice-cold PBS and lysed with protein lysis buffer (Intron Biotechnology, Seoul, Korea) containing protease inhibitors (0.5 mM PMSF and 5 μg/mL aprotinin). The lysates were mixed with 5X sodium dodecyl sulfate (SDS) sample buffer and boiled for 5 min for denaturation. Total protein was run on 10–12% SDS-PAGE gels and electrotransferred onto a polyvinylidene difluoride (PVDF) membrane. The membrane was immunoblotted using specific primary antibodies overnight at 4 °C following blocking with 5% non-fat dry milk for 30 min–1 h. After washing, the membrane was incubated with horseradish peroxidase-conjugated secondary antibody (1:1000–2000) at room temperature for 1−2 h. After washing, immunepositive bands were visualized using an ECL chemiluminescent system and analyzed by Image Quant LAS-4000 (Fujifilm Life science, Tokyo, Japan). Anti-caspase-3 and b-actin antibodies were obtained from Santa Cruz Biotechnology (Santa Cruz, CA, USA). Caspase-9 antibody was purchased from Cell Signaling (Beverly, MA, USA). Caspase-8 antibody was obtained from BD Biosciences (San Jose, CA, USA).

[12] = tested on: caspase-8; test: Western blot caspase activation, A2780; format: cell-based, human; details: A2780, 48 h, procaspase level by Western blot
Experimental: as §5

[13] = tested on: caspase-9; test: Western blot caspase activation, A2780; format: cell-based, human; details: A2780, 48 h, procaspase level by Western blot
Experimental: as §5

[14] = tested on: caspase-3; test: Western blot caspase activation, SKOV3; format: cell-based, human; details: SKOV3, 48 h, procaspase level by Western blot
Experimental: as §5

[15] = tested on: caspase-8; test: Western blot caspase activation, SKOV3; format: cell-based, human; details: SKOV3, 48 h, procaspase level by Western blot
Experimental: as §5

[16] = tested on: caspase-9; test: Western blot caspase activation, SKOV3; format: cell-based, human; details: SKOV3, 48 h, procaspase level by Western blot
Experimental: as §5

[17] = tested on: EBV-EA activation; parameters: method as in PMID 9255419, doi:10.1016/S1572-5995(00)80047-2; details: Raji cells; cited from earlier work
[18] = tested on: human leukemia HL-60 cells; parameters: method as in PMID 11507740; details: cited from earlier work
[19] = IOSE80PC immortalized ovarian surface epithelial cells

Compound	effect on (−)-asarinin (1)-induced cell death [1]	effect on (−)-asarinin (1)-induced cell death [2]	IC50 ([3]; A2780, MTT, 48 h) [µM]	IC50 ([4]; SK-OV-3, SKOV3, MTT, 48 h) [µM]	IC50 at 48 h [5, 19] [µM]	IC50 ([3]; A2780, 48 h) [µM]	IC50 ([4]; SK-OV-3, 48 h) [µM]	IC50 at 48 h [5] [µM]	further results
z-IETD-fmk	considerably attenuated	considerably attenuated							
C/C=C/C=C\CC/C=C/C=C/C(=O)NCC(C)C [Compound 8, (2E,4E,8Z,10E/Z)-N-isobutyldodeca-2,4,8,10-tetraenamide]			101 ± 10.3	> 200	> 200				
CCC(=O)c1cc2c(cc1O)OCO2 [Compound 3, kakuol]						> 200	> 200	> 200	
c1cc2c(cc1[C@H]1OC[C@H]3[C@@H]1CO[C@H]3c1ccc3c(c1)OCO3)OCO2 [Compound 1, (−)-asarinin]						38.5 ± 2.78	60.9 ± 5.01	> 200	cytotoxicity (in words) [6]: did not show any cytotoxicity; cell cycle arrest [7]: failed to induce cell cycle arrest; cell cycle arrest [8]: failed to induce cell cycle arrest; percentage of Annexin V-FITC positive/PI negative cells [9]: up to 43%; percentage of Annexin V-FITC positive/PI negative cells [10]: ≤ 48%; activation of caspase-3 [11]: markedly stimulated the activation; activation of caspase-8 [12]: markedly stimulated the activation; activation of caspase-9 [13]: markedly stimulated the activation; activation of caspase-3 [14]: markedly stimulated the activation; activation of caspase-8 [15]: markedly stimulated the activation; activation of caspase-9 [16]: markedly stimulated the activation; effect on EBV-EA activation [17]: significant inhibitory effect; DNA synthesis [18]: inhibited DNA synthesis
C/C=C\CC/C=C/C=C/C(=O)NCC(C)C [Compound 7, (2E,4E,8Z)-N-isobutyldeca-2,4,8-trienamide]			> 200	> 200	> 200				
COc1cc([C@@H]2OC[C@@H]3[C@H]2CO[C@H]3c2ccc3c(c2)OCO3)ccc1O [Compound 2, (−)-pluviatilol]			102 ± 13.6	174 ± 9.42	179 ± 3.3				
z-LEHD-fmk	considerably attenuated	considerably attenuated							
z-DEVD-fmk	considerably attenuated	considerably attenuated							
CCC(=O)c1cc2c(cc1OC)OCO2 [Compound 4, methylkakuol]						> 200	> 200	> 200	
